We go through 15 compounds from patent US10562912B2 (C&C Research Laboratories, priority 2013, dated 2020).

Usually IC50 stands for the point on the concentration scale where inhibition reaches its midpoint. A high value points to weaker potency.

Each structure is given as a SMILES string.

Common to all, as to format: cell-based
One assay deals with T1, STAT3 (Homo sapiens, UniProt P40763).
T1 construct: plasmid pSTAT3-TA-luc), which contains a stably operating STAT3 promoter; endogenous in cells
Kind of assay: STAT3 reporter gene assay (luciferase), LNCaP stable cell line (pSTAT3-TA-luc), IL-6 stimulation. The gist of the method:
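LNCaP cells stably carrying pSTAT3-TA-luc, in RPMI1640 with 3% DCC-FBS, were treated with compound and then stimulated with 10 ng/mL IL-6 for 24–48 h at 37 °C. Luciferase activity was measured in lysates. A parallel plate measured viability by CellTiter-Glo, with stimulated 0.1% DMSO wells as the positive control.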

In the next assay the test system is MDA-MB-231. Kind of assay: Cell growth inhibition assay, breast cancer cell line MDA-MB-231. The conditions noted are these: Homo sapiens; MDA-MB-231 breast cancer cell line, 5,000 cells/well.
Another assay concerns LNCaP. Kind of assay: Cell growth inhibition assay, prostate cancer cell line LNCaP (medium with 10 ng/mL IL-6). To be noted: Homo sapiens, medium supplemented with 10 ng/mL of IL-6, 10,000 cells/well.
The next assay concerns DU-145. Kind of assay: Cell growth inhibition assay, prostate cancer cell line DU-145. To be noted: Homo sapiens, DU-145 prostate cancer cell line. The gist of the method:
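Seed DU-145/HCT116 3,000 cells/well, SW626 5,000 cells/well; add compound dilution series; incubate 72–96 h, 37° C., 5% CO2; microscope check for precipitate; CellTiter-Glo, luminescence. Blank = no cells; vehicle = 0.1% DMSO.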

The subject of a further assay is HEL92.1.7. Kind of assay: Cell growth inhibition assay, blood cancer cell line HEL92.1.7. The conditions noted are these: Homo sapiens, HEL 92.1.7, HEL92.1.7 blood cancer cell line. Put shortly: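 Cells were seeded at 3,000/well (HCT116, DU-145) or 5,000/well (SW626 and the others) and exposed to serial compound dilutions for 72 to 96 h at 37 °C under 5% CO2. Viability was read as CellTiter-Glo luminescence against 0.1% DMSO and cell-free wells.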

T1 sequence (P40763 whole entry): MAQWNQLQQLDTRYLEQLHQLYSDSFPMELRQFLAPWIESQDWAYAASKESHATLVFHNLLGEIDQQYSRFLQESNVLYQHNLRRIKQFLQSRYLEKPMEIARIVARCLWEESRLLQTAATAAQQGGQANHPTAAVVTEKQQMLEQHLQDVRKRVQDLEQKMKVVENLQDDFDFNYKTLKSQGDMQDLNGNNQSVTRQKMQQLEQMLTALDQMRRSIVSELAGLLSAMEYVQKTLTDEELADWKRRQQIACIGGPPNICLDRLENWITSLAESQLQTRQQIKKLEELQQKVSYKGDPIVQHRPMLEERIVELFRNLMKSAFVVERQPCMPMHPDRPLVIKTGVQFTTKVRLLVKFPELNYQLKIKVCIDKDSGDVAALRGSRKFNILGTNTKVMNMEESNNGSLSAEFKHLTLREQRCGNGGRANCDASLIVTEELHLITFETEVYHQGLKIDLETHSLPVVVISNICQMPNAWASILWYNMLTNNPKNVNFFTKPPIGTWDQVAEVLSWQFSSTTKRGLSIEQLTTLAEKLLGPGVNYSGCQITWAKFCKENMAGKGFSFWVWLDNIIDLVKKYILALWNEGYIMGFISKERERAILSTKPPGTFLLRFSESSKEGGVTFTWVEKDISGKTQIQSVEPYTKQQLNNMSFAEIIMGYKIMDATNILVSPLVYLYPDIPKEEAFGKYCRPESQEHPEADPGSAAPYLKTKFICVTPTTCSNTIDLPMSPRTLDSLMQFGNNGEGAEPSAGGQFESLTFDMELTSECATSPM

As for `CC(C)(c1cc(Br)cc(NC(=O)c2cc3ccc(NS(C)(=O)=O)cc3[nH]2)c1)c1ccc(F)cc1F` [Example 15, N-(3-bromo-5-(2-(2,4-difluorophenyl)propan-2-yl)phenyl)-6-(methylsulfonamido)-1H-indole-2-carboxamide], the IC50 at STAT3 came out at 0.12 µM; in the assay with MDA-MB-231, 0.068 µM; in the assay with LNCaP, 0.29 µM; in the assay on DU-145, 0.25 µM; in the assay with HEL92.1.7, 1.8 µM.
For `CC(C)(c1cc(Br)cc(NC(=O)c2cc3cc(NS(C)(=O)=O)ccc3s2)c1)c1ccc(F)cc1F` [Example 35, N-(3-bromo-5-(2-(2,4-difluorophenyl)propan-2-yl)phenyl)-5-(methylsulfonamido)benzo[b]thiophene-2-carboxamide], the IC50 turned out to be 0.076 µM on STAT3; 0.027 µM in the assay with MDA-MB-231; 0.067 µM in the assay with LNCaP; 0.06 µM in the assay with DU-145; 0.28 µM with HEL92.1.7.
As to `CS(=O)(=O)Nc1ccc2cc(C(=O)Nc3cccc(-c4ccc(F)cc4F)c3)[nH]c2c1` [Example 270, N-(2′,4′-difluoro-[1,1′-biphenyl]-3-yl)-6-(methylsulfonamido)-1H-indole-2-carboxamide], the concentration for half-maximal inhibition (IC50) is 0.38 µM at STAT3, 0.7 µM in the assay with MDA-MB-231, 1.01 µM with LNCaP and 1.7 µM in the assay on HEL92.1.7.
In the case of `CS(=O)(=O)Nc1ccc2cc(C(=O)Nc3cc(Br)cc(-c4ccc(F)cc4F)c3)[nH]c2c1` [Example 302, N-(5-bromo-2′,4′-difluoro-[1,1′-biphenyl]-3-yl)-6-(methylsulfonamido)-1H-indole-2-carboxamide], the half-maximal inhibitory concentration (IC50) against STAT3 was 0.4 µM; in the assay on MDA-MB-231, 0.11 µM; with LNCaP, 2.5 µM; in the assay with DU-145 it was 0.57 µM; in the assay on HEL92.1.7, 2.7 µM.
`CS(=O)(=O)Nc1ccc2sc(C(=O)Nc3cc(Br)cc(-c4ccc(F)cc4F)c3)cc2c1` [Example 305, N-(5-bromo-2′,4′-difluoro-[1,1′-biphenyl]-3-yl)-5-(methylsulfonamido)benzo[b]thiophene-2-carboxamide]: the IC50 at STAT3 was 0.067 µM; in the assay with MDA-MB-231, 0.001 µM; in the assay on LNCaP, 0.072 µM; in the assay on DU-145 it was 0.03 µM; with HEL92.1.7, 0.24 µM.
Take `CN(c1ccc2cc(C(=O)Nc3cccc(-c4ccc(F)cc4F)c3)[nH]c2c1)S(C)(=O)=O` [Example 344, N-(2′,4′-difluoro-[1,1′-biphenyl]-3-yl)-6-(N-methylmethylsulfonamido)-1H-indole-2-carboxamide]: the IC50 against STAT3 was 0.15 µM; in the assay with MDA-MB-231, 0.1 µM; with LNCaP, 0.014 µM; with HEL92.1.7, 0.49 µM.
For `CS(=O)(=O)Nc1ccc2sc(C(=O)Nc3cc(Br)cc(S(=O)(=O)N4CCc5c(F)cc(F)cc5C4)c3)cc2c1` [Example 419, N-(3-bromo-5-((5,7-difluoro-3,4-dihydroisoquinolin-2(1H)-yl)sulfonyl)phenyl)-5-(methylsulfonamido)benzo[b]thiophene-2-carboxamide], the 50% inhibitory concentration (IC50) against STAT3 worked out at 0.67 µM; in the assay on LNCaP, 1 µM; with DU-145, 0.65 µM; in the assay with HEL92.1.7 it was 1.8 µM.
Take `CS(=O)(=O)Nc1ccc2sc(C(=O)Nc3cc(Br)cc(S(=O)(=O)N4CCC(F)(F)CC4)c3)cc2c1` [Example 420, N-(3-bromo-5-((4,4-difluoropiperidin-1-yl)sulfonyl)phenyl)-5-(methylsulfonamido)benzo[b]thiophene-2-carboxamide]: the half-maximal inhibitory concentration (IC50) against STAT3 was 0.82 µM; with LNCaP, 1.7 µM; in the assay on DU-145, 0.95 µM; in the assay on HEL92.1.7, 2.4 µM.
Take `CC(C)Oc1cc(OC(F)(F)F)cc(C2(c3cc(Cl)cc(NC(=O)c4cc5cc(N(C)S(C)(=O)=O)c(F)cc5s4)c3)CC2)c1` [Example 430, N-(3-chloro-5-(1-(3-isopropoxy-5-(trifluoromethoxy)phenyl)cyclopropyl)phenyl)-6-fluoro-5-(N-methylmethylsulfonamido)benzo[b]thiophene-2-carboxamide]: the concentration for half-maximal inhibition (IC50) against STAT3 stood at 0.012 µM; with LNCaP, 0.006 µM; with DU-145, 0.006 µM; in the assay on HEL92.1.7, 0.014 µM.
As for `CC(C)Oc1cc(OC(F)(F)F)cc(C2(c3cc(Cl)cc(NC(=O)c4cc5cc(NS(C)(=O)=O)ccc5s4)c3)CC2)c1` [Example 431, N-(3-chloro-5-(1-(3-isopropoxy-5-(trifluoromethoxy)phenyl)cyclopropyl)phenyl)-5-(methylsulfonamido)benzo[b]thiophene-2-carboxamide], the IC50 was 0.053 µM against STAT3, 0.034 µM in the assay with LNCaP, 0.038 µM in the assay on DU-145 and 0.007 µM with HEL92.1.7.
Consider `CS(=O)(=O)Nc1ccc2sc(C(=O)Nc3cc(Cl)cc(Nc4ccc(F)cc4F)c3)cc2c1` [Example 438, N-(3-chloro-5-((2,4-difluorophenyl)amino)phenyl)-5-(methylsulfonamido)benzo[b]thiophene-2-carboxamide], for which the IC50 on STAT3 was 0.2 µM; in the assay with LNCaP, 0.42 µM; in the assay with DU-145, 0.16 µM; in the assay on HEL92.1.7, 0.48 µM.
With `CN(c1cc(Cl)cc(NC(=O)c2cc3cc(NS(C)(=O)=O)ccc3s2)c1)c1ccc(F)cc1F` [Example 439, N-(3-chloro-5-((2,4-difluorophenyl)(methyl)amino)phenyl)-5-(methylsulfonamido)benzo[b]thiophene-2-carboxamide], the 50% inhibitory concentration (IC50) was 0.053 µM at STAT3, 0.15 µM in the assay on LNCaP, 0.089 µM with DU-145 and 0.64 µM with HEL92.1.7.
With `CN(c1ccc(Cl)cc1)c1cc(Cl)cc(NC(=O)c2cc3cc(NS(C)(=O)=O)ccc3s2)c1` [Example 440, N-(3-chloro-5-((4-chlorophenyl)(methyl)amino)phenyl)-5-(methylsulfonamido)benzo[b]thiophene-2-carboxamide], the half-maximal inhibitory concentration (IC50) came out at 0.036 µM against STAT3, 0.021 µM in the assay with LNCaP, 0.012 µM with DU-145 and 0.085 µM in the assay with HEL92.1.7.
For the compound `CS(=O)(=O)Nc1ccc2sc(C(=O)Nc3cc(Cl)cc(Oc4ccc(F)cc4F)c3)cc2c1` [Example 444, N-(3-chloro-5-(2,4-difluorophenoxy)phenyl)-5-(methylsulfonamido)benzo[b]thiophene-2-carboxamide], the IC50 was 0.083 µM against STAT3, 0.24 µM with LNCaP, 0.13 µM with DU-145 and 0.65 µM in the assay on HEL92.1.7.
Turning to `CS(=O)(=O)Nc1ccc2sc(C(=O)Nc3cc(Cl)cc(Oc4ccc(Cl)cc4)c3)cc2c1` [Example 445, N-(3-chloro-5-(4-chlorophenoxy)phenyl)-5-(methylsulfonamido)benzo[b]thiophene-2-carboxamide], the IC50 is 0.066 µM on STAT3, 0.074 µM with LNCaP, 0.055 µM in the assay on DU-145 and 0.15 µM in the assay on HEL92.1.7.
